# Organism: Rattus norvegicus
# Assay type: toxicity, organism-based, Sprague-Dawley
# Conditions: in vivo, po, route oral GAVAGE, […]; for ABSOLUTE EOSINOPHIL / ABSOLUTE LYMPHOCYTE / ABSOLUTE MONOCYTE / ABSOLUTE SEGMENTED NEUTROPHIL / BASOPHIL / EOSINOPHIL / ERYTHROCYTE COUNT / HEMATOCRIT / HEMOGLOBIN / LEUKOCYTE COUNT / LYMPHOCYTE / MEAN CORPUSCULAR HEMOGLOBIN / MEAN CORPUSCULAR HEMOGLOBIN CONCENTRATION / MEAN CORPUSCULAR VOLUME / MONOCYTE / NEUTROPHIL / NUCLEATED RED BLOOD CELLS / PLATELET COUNT: tissue Blood; for ALANINE AMINOTRANSFERASE / ALBUMIN / ALKALINE PHOSPHATASE / ASPARTATE AMINOTRANSFERASE / BLOOD UREA NITROGEN / CARBON DIOXIDE / CHLORIDE / CHOLESTEROL / CREATINE PHOSPHOKINASE / CREATININE / GLUCOSE / LACTATE DEHYDROGENASE / LIPASE / PHOSPHORUS / POTASSIUM / SODIUM / TOTAL BILIRUBIN / TOTAL PROTEIN / URIC ACID: tissue Plasma
# [1] = 0 mg/kg, 6 h, vehicle control, dose level Control, time 0.25 day
# [2] = 0 mg/kg, 24 h, vehicle control, dose level Control, time 1 day
# [3] = 130 mg/kg, 6 h, dose level Low, time 0.25 day
# Description: DrugMatrix - Regimen: Single
structure (smiles),measurement,setting,value
CCOC(=O)C(C)(C)Oc1ccc(Cl)cc1 [CLOFIBRATE],ABSOLUTE EOSINOPHIL,[1],0 CELLS/uL
same,ABSOLUTE LYMPHOCYTE,[1],8631 CELLS/uL
same,ABSOLUTE MONOCYTE,[1],171.17 CELLS/uL
same,ABSOLUTE SEGMENTED NEUTROPHIL,[1],1214.5 CELLS/uL
same,BASOPHIL,[1],0%
same,EOSINOPHIL,[1],0%
same,ERYTHROCYTE COUNT,[1],5.42 x10E6/uL
same,HEMATOCRIT,[1],34.7%
same,HEMOGLOBIN,[1],13.67 G/DL
same,LEUKOCYTE COUNT,[1],10.02 x10E3/uL
same,LYMPHOCYTE,[1],86.17%
same,MEAN CORPUSCULAR HEMOGLOBIN,[1],25.27 pg
same,MEAN CORPUSCULAR HEMOGLOBIN CONCENTRATION,[1],39.42 G/DL
same,MEAN CORPUSCULAR VOLUME,[1],64.12 fL
same,MONOCYTE,[1],1.67%
same,NEUTROPHIL,[1],12.17%
same,NUCLEATED RED BLOOD CELLS,[1],0 /100WBC
same,PLATELET COUNT,[1],1050 x10E3/uL
same,ALANINE AMINOTRANSFERASE,[1],61 u/L
same,ALBUMIN,[1],4.67 G/DL
same,ALKALINE PHOSPHATASE,[1],312.5 u/L
same,ASPARTATE AMINOTRANSFERASE,[1],117.5 u/L
same,BLOOD UREA NITROGEN,[1],8.67 mg/dL
same,CARBON DIOXIDE,[1],26.33 mmol/L
same,CHLORIDE,[1],100.5 MEQ/L
same,CHOLESTEROL,[1],72 mg/dL
same,CREATINE PHOSPHOKINASE,[1],283.33 u/L
same,CREATININE,[1],0.28 mg/dL
same,GLUCOSE,[1],172 mg/dL
same,LACTATE DEHYDROGENASE,[1],95.33 u/L
same,LIPASE,[1],10.17 u/L
same,PHOSPHORUS,[1],9.9 mg/dL
same,POTASSIUM,[1],5.75 MEQ/L
same,SODIUM,[1],142.4 MEQ/L
same,TOTAL BILIRUBIN,[1],0.3 mg/dL
same,TOTAL PROTEIN,[1],5.43 G/DL
same,URIC ACID,[1],0.73 mg/dL
same,ABSOLUTE EOSINOPHIL,[2],90.83 CELLS/uL
same,ABSOLUTE LYMPHOCYTE,[2],14725.17 CELLS/uL
same,ABSOLUTE MONOCYTE,[2],220 CELLS/uL
same,ABSOLUTE SEGMENTED NEUTROPHIL,[2],1080.67 CELLS/uL
same,BASOPHIL,[2],0%
same,EOSINOPHIL,[2],0.67%
same,ERYTHROCYTE COUNT,[2],5.3 x10E6/uL
same,HEMATOCRIT,[2],33.4%
same,HEMOGLOBIN,[2],13.4 G/DL
same,LEUKOCYTE COUNT,[2],16.12 x10E3/uL
same,LYMPHOCYTE,[2],91.17%
same,MEAN CORPUSCULAR HEMOGLOBIN,[2],25.3 pg
same,MEAN CORPUSCULAR HEMOGLOBIN CONCENTRATION,[2],40.12 G/DL
same,MEAN CORPUSCULAR VOLUME,[2],63.05 fL
same,MONOCYTE,[2],1.5%
same,NEUTROPHIL,[2],6.67%
same,NUCLEATED RED BLOOD CELLS,[2],0 /100WBC
same,PLATELET COUNT,[2],1062 x10E3/uL
same,ALANINE AMINOTRANSFERASE,[2],69 u/L
same,ALBUMIN,[2],4.33 G/DL
same,ALKALINE PHOSPHATASE,[2],269 u/L
same,ASPARTATE AMINOTRANSFERASE,[2],83.67 u/L
same,BLOOD UREA NITROGEN,[2],14 mg/dL
same,CARBON DIOXIDE,[2],29 mmol/L
same,CHLORIDE,[2],100.83 MEQ/L
same,CHOLESTEROL,[2],66.67 mg/dL
same,CREATINE PHOSPHOKINASE,[2],355 u/L
same,CREATININE,[2],0.18 mg/dL
same,GLUCOSE,[2],161.33 mg/dL
same,LACTATE DEHYDROGENASE,[2],123.33 u/L
same,LIPASE,[2],10.67 u/L
same,PHOSPHORUS,[2],8.83 mg/dL
same,POTASSIUM,[2],6.06 MEQ/L
same,SODIUM,[2],142.45 MEQ/L
same,TOTAL BILIRUBIN,[2],0.2 mg/dL
same,TOTAL PROTEIN,[2],5.72 G/DL
same,URIC ACID,[2],1.27 mg/dL
same,ABSOLUTE EOSINOPHIL,[3],53.33 CELLS/uL
same,ABSOLUTE LYMPHOCYTE,[3],12668.17 CELLS/uL
same,ABSOLUTE MONOCYTE,[3],233.17 CELLS/uL
same,ABSOLUTE SEGMENTED NEUTROPHIL,[3],1278.67 CELLS/uL
same,BASOPHIL,[3],0%
same,EOSINOPHIL,[3],0.33%
same,ERYTHROCYTE COUNT,[3],5.56 x10E6/uL
same,HEMATOCRIT,[3],34.18%
same,HEMOGLOBIN,[3],13.43 G/DL
same,LEUKOCYTE COUNT,[3],14.23 x10E3/uL
same,LYMPHOCYTE,[3],88.83%
same,MEAN CORPUSCULAR HEMOGLOBIN,[3],24.17 pg
same,MEAN CORPUSCULAR HEMOGLOBIN CONCENTRATION,[3],39.33 G/DL
same,MEAN CORPUSCULAR VOLUME,[3],61.53 fL
same,MONOCYTE,[3],1.67%
same,NEUTROPHIL,[3],9.17%
same,NUCLEATED RED BLOOD CELLS,[3],0 /100WBC
same,PLATELET COUNT,[3],1136.67 x10E3/uL
same,ALANINE AMINOTRANSFERASE,[3],40.17 u/L
same,ALBUMIN,[3],4.38 G/DL
same,ALKALINE PHOSPHATASE,[3],384.83 u/L
same,ASPARTATE AMINOTRANSFERASE,[3],76.67 u/L
same,BLOOD UREA NITROGEN,[3],7.4 mg/dL
same,CARBON DIOXIDE,[3],25 mmol/L
same,CHLORIDE,[3],101.4 MEQ/L
same,CHOLESTEROL,[3],63.33 mg/dL
same,CREATINE PHOSPHOKINASE,[3],249.67 u/L
same,CREATININE,[3],0.36 mg/dL
same,GLUCOSE,[3],139.83 mg/dL
same,LACTATE DEHYDROGENASE,[3],146.17 u/L
same,LIPASE,[3],10.2 u/L
same,PHOSPHORUS,[3],10.1 mg/dL
same,POTASSIUM,[3],5.97 MEQ/L
same,SODIUM,[3],142.94 MEQ/L
same,TOTAL BILIRUBIN,[3],0.38 mg/dL
same,TOTAL PROTEIN,[3],5.73 G/DL
same,URIC ACID,[3],0.96 mg/dL

# From ChEMBL document CHEMBL3885881, “DrugMatrix”
